These results are taken from patent publication US20160045529A1, “Pharmaceutical Compositions Containing Palmitoylethanolamide And Cytidine-Diphosphocholine And Methods Of Treatment Therewith” (EPITECH GROUP S.R.L., priority 2014, published 2016).

In test [1] the test system is middle cerebral artery occlusion in rats. Briefly: Middle cerebral artery occlusion by ligation in rats, infarction area. The note with it: MCAo, suspended in CMC 1.5%; for % Infarction Area: Only CMC = 100.00; for Infarction Area in mm^2: Only CMC control 38.5. In kind it is in vivo. From the text:
Brain Res. 2012 Oct 5;1477:45-58]. Using such a method the maximum ineffective dose of the two substances, ultramicronized palmitoylethanolamide and cytidinediphosphocholine, administered separately orally suspended in carboxymethyl cellulose at 1.5% was initially sought. In the maximum ineffective doses found, the two substances were then mixed and administered together again suspended in CMC at 1.5%. The results obtained are collected in the following table 1 and the data of the synergic association between PEA and Citicoline are presented in FIGS. 1A-1B and FIGS. 2A-2B. FIGS. 1A-1B show images of coronal sections after occlusion of the middle cerebral artery (MCAo) in the absence (FIG. 1A), or in the presence of the combined treatment described above (FIG. 1B). FIG. 2 highlights the detected measurements of the infarctual area (FIG. 2A) and volume (FIG. 2B) in the absence or in the presence of the treatment.

The test system of test [2] is stroke model from ligation of the middle cerebral artery. The note with it: preclinical, optimal dose of 10 mg/kg; cited from earlier work.
The subject of a further test is cranial trauma model. Particulars: preclinical, optimal dose of 10 mg/kg; cited from earlier work.
In test [3] the test system is dementia from damage due to beta amyloid. Particulars: preclinical, optimal dose of 10 mg/kg; cited from earlier work.

Regarding `C[N+](C)(C)CCOP(=O)(O)OP(=O)([O-])OC[C@H]1O[C@@H](n2ccc(N)nc2=O)[C@H](O)[C@@H]1O` [Citicoline, Cytidine-diphosphocholine], in test [1] (50 mg/kg orally), the “% Infarction Area” value is recorded as 99.48% and the “Infarction Area in mm^2” value is given as 38.3 mm^2.
Turning to `CCCCCCCCCCCCCCCC(=O)NCCO` [PEA-um, palmitoylethanolamide], in test [1] (1 mg/kg orally), the “% Infarction Area” value stood at 99.22% and the “Infarction Area in mm^2” value was determined as 38.2 mm^2.
Take `CCCCCCCCCCCCCCCC(=O)NCCO` [palmitoylethanolamide]: in test [2], the “effect in the stroke model” value is “substantial effect”. For the same molecule, the “effect in the cranial trauma model” value in the test with cranial trauma model is on record as “substantial effect”. The “effect in the model of dementia from damage due to beta amyloid” value in test [3] was “substantial effect”.
